# Laboratory results published in patent US10550102B2, “Indane and indoline derivatives and the use thereof as soluble guanylate cyclase activators” (NOVARTIS AG, priority 2014, dated 2020).
# Molecular target: soluble guanylate cyclase (human GUCYA3 and GUCYB3) overexpressed in CHO cells (Homo sapiens (Human), UniProt Q02108+Q02153)
# Assay: CHO cellular assay (cGMP production, Cisbio cGMP HTRF kit)
# Assay type: cell-based
# Conditions: CHO GUCY clone 8E10, cGMP production, assay buffer with 1 mM IBMX and 20 uM ODQ, 1 h room temperature; minimum quantification limit 0.5 nM (listed 0.5 nM means ≤0.5 nM); read-out: EC50
# Summary of the method: (§1)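 Stable CHO-K1 clone 8E10 expressing human sGC (GUCYA3/GUCYB3), 3000 cells/well, exposed 1 h at room temperature to activators in HBSS, 0.1% BSA, 1 mM IBMX, 20 uM ODQ, 0.5% DMSO final. cGMP was measured by HTRF and interpolated from a standard curve. EC50 came from a 4-parameter sigmoidal fit.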
# Sequence of soluble guanylate cyclase (human GUCYA3 and GUCYB3) overexpressed in CHO cells (Homo sapiens (Human), UniProt Q02108+Q02153) (Q02108 whole entry partner): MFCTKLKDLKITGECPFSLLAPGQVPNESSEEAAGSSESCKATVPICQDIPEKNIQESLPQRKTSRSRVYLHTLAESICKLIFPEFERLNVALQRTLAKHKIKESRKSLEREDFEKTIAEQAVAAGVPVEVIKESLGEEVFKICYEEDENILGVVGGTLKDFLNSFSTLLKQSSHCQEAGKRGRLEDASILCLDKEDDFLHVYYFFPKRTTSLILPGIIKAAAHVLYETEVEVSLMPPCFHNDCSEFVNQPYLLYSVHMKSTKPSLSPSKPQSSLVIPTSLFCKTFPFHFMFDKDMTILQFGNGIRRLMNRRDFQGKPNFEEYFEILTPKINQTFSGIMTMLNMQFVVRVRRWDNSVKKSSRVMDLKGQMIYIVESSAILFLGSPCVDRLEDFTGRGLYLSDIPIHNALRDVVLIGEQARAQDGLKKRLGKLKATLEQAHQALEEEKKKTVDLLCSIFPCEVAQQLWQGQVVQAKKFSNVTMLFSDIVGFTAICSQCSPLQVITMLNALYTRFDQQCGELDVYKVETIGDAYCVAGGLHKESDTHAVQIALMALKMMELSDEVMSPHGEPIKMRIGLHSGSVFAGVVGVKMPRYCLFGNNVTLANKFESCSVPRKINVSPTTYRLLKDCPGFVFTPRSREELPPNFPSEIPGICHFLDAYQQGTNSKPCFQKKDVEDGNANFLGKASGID
# Sequence of soluble guanylate cyclase (human GUCYA3 and GUCYB3) overexpressed in CHO cells (Homo sapiens (Human), UniProt Q02108+Q02153) (Q02153 whole entry): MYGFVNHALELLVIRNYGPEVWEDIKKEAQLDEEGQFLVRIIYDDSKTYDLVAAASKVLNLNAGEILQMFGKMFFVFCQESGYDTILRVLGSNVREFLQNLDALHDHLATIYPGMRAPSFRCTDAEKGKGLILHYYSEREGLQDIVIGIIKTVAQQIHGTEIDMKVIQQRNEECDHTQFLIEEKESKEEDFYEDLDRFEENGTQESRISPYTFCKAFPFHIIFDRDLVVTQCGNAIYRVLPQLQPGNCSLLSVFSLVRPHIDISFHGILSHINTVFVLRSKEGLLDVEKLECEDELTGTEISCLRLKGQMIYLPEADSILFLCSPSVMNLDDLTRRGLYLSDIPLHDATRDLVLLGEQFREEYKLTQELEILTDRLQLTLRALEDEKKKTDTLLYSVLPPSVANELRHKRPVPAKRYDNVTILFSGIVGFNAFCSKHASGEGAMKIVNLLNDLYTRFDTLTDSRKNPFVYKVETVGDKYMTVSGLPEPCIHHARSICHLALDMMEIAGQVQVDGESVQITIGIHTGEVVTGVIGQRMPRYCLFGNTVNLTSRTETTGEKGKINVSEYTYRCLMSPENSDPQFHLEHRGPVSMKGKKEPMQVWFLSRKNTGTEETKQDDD
row,Compound,EC50 [nM]
1,"O=C(O)c1cnn(-c2cccc(-c3cccc4ccn(Cc5ccc(C6CCN(C(=O)C7CC7)CC6)cc5)c34)n2)c1C(F)(F)F [Example 26, 1-(6-(1-(4-(1-(Cyclopropanecarbonyl)piperidin-4-yl)benzyl)-1H-indol-7-yl)pyridin-2-yl)-5-(trifluoromethyl)-1H-pyrazole-4-carboxylic Acid]",21
2,CCc1cc(Cn2ccc3cccc(-c4cccc(-n5ncc(C(=O)O)c5CC)n4)c32)ccc1C1CCN(C(=O)C2CC2)CC1 [Example 27],≤ 0.5
3,"CCOC(=O)N1CCC(c2ccc(O[C@H]3CCc4cccc(-c5cccc(-n6ncc(C(=O)O)c6CC)n5)c43)cc2CC)CC1 [Example 29, (S)-1-(6-(3-(4-(1-(Ethoxycarbonyl)piperidin-4-yl)-3-ethylphenoxy)-2,3-dihydro-1H-inden-4-yl)pyridin-2-yl)-5-ethyl-1H-pyrazole-4-carboxylic Acid]",1
4,CCc1cc(O[C@H]2CCc3cccc(-c4cccc(-n5ncc(C(=O)O)c5CC)n4)c32)ccc1C1CCN(C(=O)[C@H](C)O)CC1 [Example 30],≤ 0.5
5,CCC[C@H](O)C(=O)N1CCC(c2ccc(O[C@H]3CCc4cccc(-c5cccc(-n6ncc(C(=O)O)c6CC)n5)c43)cc2CC)CC1 [Example 31-1],≤ 0.5
6,CCc1cc(O[C@H]2CCc3cccc(-c4cccc(-n5ncc(C(=O)O)c5CC)n4)c32)ccc1C1CCN(C(=O)[C@@H](O)CC)CC1 [Example 31-2],≤ 0.5
7,"CCc1cc(O[C@H]2CCc3cccc(-c4cccc(-n5ncc(C(=O)O)c5CC)n4)c32)ccc1C1CCN(C(=O)[C@@H](C)CO)CC1 [Example 31-3, 5-Ethyl-1-(6-((S)-3-(3-ethyl-4-(1-((S)-3-hydroxy-2-methylpropanoyl)piperidin-4-yl)phenoxy)-2-3-dihydro-1H-inden-4-yl)pyridin-2-yl)-1H-pyrazole-4-carboxylic acid]",≤ 0.5
8,"CCc1cc(O[C@H]2CCc3cccc(-c4cccc(-n5ncc(C(=O)O)c5CC)n4)c32)ccc1C1CCN(C(=O)C2(O)CCC2)CC1 [Example 31-4, (S)-5-Ethyl-1-(6-(3-(3-ethyl-4-(1-(1-hydroxycyclobutanecarbonyl)piperidin-4-yl)phenoxy)-2,3-dihydro-1H-inden-4-yl)pyridin-2-yl)-1H-pyrazole-4-carboxylic acid]",≤ 0.5
9,"CCc1cc(O[C@H]2CCc3cccc(-c4cccc(-n5ncc(C(=O)O)c5CC)n4)c32)ccc1C1CCN(C(=O)C2(O)CC2)CC1 [Example 33, (S)-5-ethyl-1-(6-(3-(3-ethyl-4-(1-(1-hydroxycyclopropanecarbonyl)piperidin-4-yl)phenoxy)-2,3-dihydro-1H-inden-4-yl)pyridin-2-yl)-1H-pyrazole-4-carboxylic Acid]",≤ 0.5
10,CCOC(=O)N1CCC(c2ccc(NC3CCc4cccc(-c5cccc(-n6ncc(C(=O)O)c6C)n5)c43)c(C)c2)CC1 (stereo not shown) [Example 52-4],≤ 0.5
11,COCCOC(=O)N1CCC(c2ccc(NC3CCc4cccc(-c5cccc(-n6ncc(C(=O)O)c6C)n5)c43)c(C)c2)CC1 (stereo not shown) [Example 52-5],1
12,"C=C(C)OC(=O)N1CCC(c2ccc(NC3CCc4cccc(-c5cccc(-n6ncc(C(=O)O)c6C)n5)c43)c(C)c2)CC1 (stereo not shown) [Example 52-6, 5-Methyl-1-(6-(3-((2-methyl-4-(1-((prop-1-en-2-yloxy)carbonyl)piperidin-4-yl)phenyl)amino)-2,3-dihydro-1H-inden-4-yl)pyridin-2-yl)-1H-pyrazole-4-carboxylic acid]",1.4
13,"CCc1cc(O[C@H]2CCc3cccc(-c4cccc(-n5ncc(C(=O)O)c5CC)n4)c32)ccc1C1CCN(C(=O)OCc2ccccc2)CC1 [Example 64-1, (S)-1-(6-(3-(4-(1-((Benzyloxy)carbonyl)pipendin-4-yl)-3-ethylphenoxy)-2,3-dihydro-1H-inden-4-yl)pyridin-2-yl)-5-ethyl-1H-pyrazole-4-carboxylic acid]",2
14,"CCc1cc(O[C@H]2CCc3cccc(-c4cccc(-n5ncc(C(=O)O)c5CC)n4)c32)ccc1C1CCN(C(=O)OCC2CC2)CC1 [Example 64-6, (S)-1-(6-(3-(4-(1-((Cyclopropylmethoxy)carbonyl)piperidin-4-yl)-3-ethylphenoxy)-2,3-dihydro-1H-inden-4-yl)pyridin-2-yl)-5-ethyl-1H-pyrazole-4-carboxylic acid]",1.4
15,"CCc1cc(O[C@H]2CCc3cccc(-c4cccc(-n5ncc(C(=O)O)c5CC)n4)c32)ccc1C1CCN(S(C)(=O)=O)CC1 [Example 64-8, (S)-5-Ethyl-1-(6-(3-(3-ethyl-4-(1-(methylsulfonyl)piperidin-4-yl)phenoxy)-2,3-dihydro-1H-inden-4-yl)pyridin-2-yl)-1H-pyrazole-4-carboxylic acid]",≤ 0.5

# Same assay, conditions: EC50 (nM)
row,Compound,EC50 [nM]
1,"CCc1cc(O[C@H]2CCc3cccc(-c4cccc(-n5ncc(C(=O)O)c5CC)n4)c32)ccc1C1CCN(C(=O)OCC(C)C)CC1 [Example 64-2, (S)-5-Ethyl-1-(6-(3-(3-ethyl-4-(1-(isobutoxycarbonyl)piperidin-4-yl)phenoxy)-2,3-dihydro-1H-inden-4-yl)pyridin-2-yl)-1H-pyrazole-4-carboxylic acid]",3
2,"CCc1cc(O[C@H]2CCc3cccc(-c4cccc(-n5ncc(C(=O)O)c5CC)n4)c32)ccc1C1CCN(C(=O)OC(C)C)CC1 [Example 64-3, (S)-5-Ethyl-1-(6-(3-(3-ethyl-4-(1-(isopropoxycarbonyl)piperidin-4-yl)phenoxy)-2,3-dihydro-1H-inden-4-yl)pyridin-2-yl)-1H-pyrazole-4-carboxylic acid]",1
3,"CCCOC(=O)N1CCC(c2ccc(O[C@H]3CCc4cccc(-c5cccc(-n6ncc(C(=O)O)c6CC)n5)c43)cc2CC)CC1 [Example 64-4, (S)-5-Ethyl-1-(6-(3-(3-ethyl-4-(1-(propoxycarbonyl)piperidin-4-yl)phenoxy)-2,3-dihydro-1H-inden-4-yl)pyridin-2-yl)-1H-pyrazole-4-carboxylic acid]",≤ 0.5
4,"C=CCOC(=O)N1CCC(c2ccc(O[C@H]3CCc4cccc(-c5cccc(-n6ncc(C(=O)O)c6CC)n5)c43)cc2CC)CC1 [Example 64-5, (S)-1-(6-(3-(4-(1-((Allyloxy)carbonyl)piperidin-4-yl)-3-ethylphenoxy)-2,3-dihydro-1H-inden-4-yl)pyridin-2-yl)-5-ethyl-1H-pyrazole-4-carboxylic acid]",≤ 0.5

# Molecular target: soluble guanylate cyclase (human GUCYA3 and GUCYB3) overexpressed in CHO cells (Homo sapiens (Human), UniProt Q02153)
# Assay: as above
# Assay type: cell-based
# Conditions: CHO GUCY clone 8E10, cGMP production, assay buffer with 1 mM IBMX and 20 uM ODQ, 1 h room temperature; minimum quantification limit 0.5 nM (listed 0.5 nM means ≤0.5 nM)
# Summary of the method: as §1
# Sequence of soluble guanylate cyclase (human GUCYA3 and GUCYB3) overexpressed in CHO cells (Homo sapiens (Human), UniProt Q02153) (Q02108 whole entry partner): as the sequence (Q02108 whole entry partner) above
# Sequence of soluble guanylate cyclase (human GUCYA3 and GUCYB3) overexpressed in CHO cells (Homo sapiens (Human), UniProt Q02153) (Q02153 whole entry): as the sequence (Q02153 whole entry) above
row,Compound,EC50 [nM]
1,"CCc1cc(CN2CC(C)c3cccc(-c4cccc(-n5ncc(C(=O)O)c5CC)n4)c32)ccc1C1CCN(C(=O)[C@H](C)O)CC1 (single isomer, unassigned) [Example 17b]",≤ 0.5
2,"CCc1cc(O[C@H]2CCc3cccc(-c4cccc(-n5ncc(C(=O)O)c5CC)n4)c32)ccc1C1CCN(C(=O)C(C)CCO)CC1 (single isomer, unassigned) [Example 32b]",≤ 0.5
3,"CCc1cc(CN2CC(C)c3cccc(-c4cccc(-n5ncc(C(=O)O)c5CC)n4)c32)ccc1C1CCN(C(=O)C2CC2)CC1 (single isomer, unassigned; (-)) [(−)-20-1, (−)-1-(6-(1-(4-(1-(Cyclopropanecarbonyl)piperidin-4-yl)-3-ethylbenzyl)-3-methylindolin-7-yl)pyridin-2-yl)-5-ethyl-1H-pyrazole-4-carboxylic acid]",≤ 0.5
4,"CCc1cc(CN2CC(C)c3cccc(-c4cccc(-n5ncc(C(=O)O)c5C)n4)c32)ccc1C1CCN(C(=O)C2CC2)CC1 (single isomer, unassigned; (-)) [(−)-20-3, (−)-1-(6-(1-(4-(1-(Cyclopropanecarbonyl)piperidin-4-yl)-3-ethylbenzyl)-3-methylindolin-7-yl)pyridin-2-yl)-5-methyl-1H-pyrazole-4-carboxylic acid]",≤ 0.5
5,"Cc1cc(C2CCN(C(=O)C3CC3)CC2)ccc1OC1CCc2cccc(-c3cccc(-n4ncc(C(=O)O)c4C(F)(F)F)n3)c21 (single isomer, unassigned; (-)) [Example 3b]",6.9
6,"O=C(O)c1cnn(-c2cccc(-c3cccc4c3C(Oc3ccc5c(c3)CCN(Cc3ccccn3)C5)CC4)n2)c1C(F)(F)F (single isomer, unassigned; (-)) [Example 4b, (−)-1-(6-(3-((2-(Pyridin-2-ylmethyl)-1,2,3,4-tetrahydroisoquinolin-6-yl)oxy)-2,3-dihydro-1H-inden-4-yl)pyridin-2-yl)-6-(trifluoromethyl)-1H-pyrazole-4-carboxylic Acid]",116
7,"CCc1cc(CN2CC(C)c3cccc(-c4cccc(-n5ncc(C(=O)O)c5C(F)(F)F)n4)c32)ccc1C1CCN(C(=O)C2CC2)CC1 (single isomer, unassigned; (-)) [Example 19b, (−)-1-(6-(1-(4-(1-(Cyclopropanecarbonyl)piperidin-4-yl)-3-ethylbenzyl)-3-methylindolin-7-yl)pyridin-2-yl)-5-(trifluoromethyl)-1H-pyrazole-4-carboxylic Acid]",≤ 0.5
8,"CCc1cc(NC2CCc3cccc(-c4cccc(-n5ncc(C(=O)O)c5CC)n4)c32)ccc1C1CCN(C(=O)[C@H](C)O)CC1 (single isomer, unassigned; (-)) [Example 48b]",11
9,"CCC[C@H](O)C(=O)N1CCC(c2ccc(NC3CCc4cccc(-c5cccc(-n6ncc(C(=O)O)c6CC)n5)c43)cc2CC)CC1 (single isomer, unassigned; (-)) [Example 49b]",20
